Results on 3 compounds are retold here after patent publication US11352604B2, “Method of making cardiomyocytes from human pluripotent cells” (Wisconsin Alumni Research Foundation, priority 2016, dated 2022).

The test system of assay [1] is hPSC-derived cardiac progenitors and hPSC-CMs. Briefly: RT-qPCR gene expression in progenitors or cardiomyocytes. The assay is classed as cell-based, human. The protocol: Frozen cell pellets from progenitors or cardiomyocytes in the 19-9-11 iPS cell line were thawed and RNA isolated using RNeasy spin columns with on-column DNase treatment according to the manufacturer's instructions (Qiagen). 500 ng of isolated RNA was used as template for reverse transcription using Biorad iScript RT supermix according to the manufacturer's instructions. 2.5 ng of derived cDNA was then used as template in qPCR with Taqman® primers bearing FAM-MGB dyes for genes of interest in a 20 μL reaction with Taqman® universal PCR supermix and the manufacturer's recommended cycling conditions (Thermo Fisher Scientific).

In a further assay the test system is cTnT isoforms. Briefly: Top-down mass spectrometry of cTnT isoforms (adult to fetal AUC ratio). The note with it: DAPT day 3-16. It is filed as cell-based, human. The protocol: Freshly isolated CMs from the H9-cTnT-GFP (FIG. 1) or 19-9-11 (FIG. 2) hPSC cell lines were washed with Ca^2+-free DPBS and centrifuged at 1,100 g for 5 minutes (min) and the wash solvent was removed. The cells were first homogenized in 50 μl HEPES solution (25 mM HEPES, pH 7.4, 2.5 mM EDTA, 100 mM NaF, 1 mM DTT, 10 mM L-methionine, 1 mM PMSF, 1 mM Na3VO4, protease inhibitor (Abcam) and phosphatase inhibitors). The homogenates were centrifuged at 17,000 g for 20 min and the HEPES extract containing predominately cytosolic proteins was collected. The remaining pellets were homogenized in 40 μl trifluoroacetic acid (TFA) solution (1% TFA, 5 mM tris(2-carboxyethyl)phosphine, 5 mM L-methionine) and centrifuged at 17,000 g for 20 min. The TFA extract containing predominantly the sarcomeric proteins was collected. Bradford protein assays were performed to determine the protein concentration. The sarcomeric protein-enriched extracts were diluted to 100 ng/μl for Liquid chromatography (LC)-MS analysis.
500 ng of each sarcomeric protein-enriched extract was injected to a home-packed reverse phase chromatography (RPC) column (PLRP-S, 10 μm particle size, 1000 A pore size, 500 μm inner diameter, 25 cm long), and the proteins were separated with a gradient of 5-95% mobile phase B (0.1% formic acid in 50:50 acetonitrile:ethanol) (mobile phase A: 0.1% formic acid in H2O) at a constant flowrate of 12 μl/min. The eluting proteins were analyzed by a high-resolution quadrupole-time of flight (q-TOF) mass spectrometer (Impact II, Bruker Daltonics) via electrospray ionization. The mass spectra were collected at a scan rate of 0.5 Hz for all samples being analyzed. Analyses of top-down mass spectra were performed using the vender-specific software DataAnalysis 3.2 (Bruker Daltonics).
Quantification of the sarcomeric protein isoforms was performed as previously described. […] The area under curve (AUC) of the EIC of a specific protein isoform represents the abundance of the selected protein isoform. […] Relative quantification of protein isoform expression was measured by the ratio of the AUCs.

For assay [2], the system named is hPSC-CMs. Briefly: Optical action potential measurement (RH237). The assay is classed as cell-based, human. As to conditions: DAPT day 3-16. The protocol: After hPSC-CM dissociation, day 30 to 60 lactate-purified hPSC-CMs from the 19-9-11 cell line were plated as 80 μL drops on areas of cover glass previously coated in drops of Synthemax® working solution of 80 μL (Corning) in the K20/2 dissociation and replating technique described above. After at least two days in K2 medium, the fast-equilibrating voltage-sensitive dye RH237 at 1 μM was added and live cells imaged in the cover glass in a Leica confocal microscope. Video files of individual cells were taken and filtered with the 50th FIR filter at a cutoff frequency of 128 Hz. The resulting action potentials were analyzed for rise time and voltage velocity in MATLAB. Individual cells were considered as replicates for statistical purposes and came from 4 cell preparations.

For assay [3], the system named is day 5 cardiac progenitor cells. Briefly: Propidium iodide cell cycle flow cytometry. It is filed as cell-based, human. The note with it: DAPT with pI:C, day 5. The protocol: Propidium iodide staining was performed on ethanol-fixed cells of the 19-9-11 iPS cell line with a low flow rate and linear mode fluorescence according to a previously published protocol (Darzynkiewicz and Juan, 2001).
(In flow cytometry, cells or beads pass a laser one at a time.)

Assay [4] deals with hPSC-CMs. Briefly: Cardiomyocyte yield and purity in GiWi differentiation. It is filed as cell-based, human. The note with it: DAPT early (day 3-5 or 3-7) and extended (day 3-10 or 3-16). The protocol:
To differentiate cardiomyocytes from hPSCs, the small molecule temporal modulation of the Wnt pathway (GiWi) monolayer protocol was used essentially as previously described (Lian et al., 2012). Human embryonic or induced pluripotent stem cells were dissociated with Versene (Thermo Fisher Scientific) for 6 minutes at 37° C., pipetted up and down 40 times, counted with a hemocytometer, spun down at 100×g for 5 minutes, and resuspended and seeded for differentiation at 1.5 million cells per well in 6 well plates or 0.4 million per well in 12 well plates in mTeSR® on stem-cell verified Matrigel® (WiCell) containing 10 μM Y-27632 ROCK-inhibitor (Tocris). After four days in mTeSR® (WiCell), at which point cells grew to 100 percent confluence, medium was switched to RPMI supplemented with B27 supplement not containing insulin (Thermo Fisher Scientific) and containing 12 μM of the Wnt agonist CHIR99021 (Tocris) for exactly 24 hours. Media was then changed to RPMI supplemented with B27 not containing insulin for exactly 48 hours. Then medium was then switched at day 3 to RPMI supplemented with B27 not containing insulin and containing 5 μM IWP2 (Tocris). At day 5, media was switched to RPMI supplemented with B27 not containing insulin for two days. At day 7 and every three days afterward, medium was replaced with RPMI supplemented with B27 containing insulin (Thermo Fisher Scientific). […]

Assay [5] deals with hPSC-CMs. Briefly: Cardiomyocyte yield from dissociated and replated progenitors. The note with it: DAPT. The assay is classed as cell-based, human. The protocol:
For dissociation of day 5 cells (for destructive analyses or live cell replating experiments), progenitors were dissociated with Versene (Thermo Fisher Scientific) for 10 minutes at 37° C., pipetted up and down 40 times, and then neutralized 1:1 v/v versene solution with “K20” medium (DMEM/F12 with 1×NEAA, 1× Glutamine, 0.1 mM (3-mercaptoethanol, and 20% Knockout Serum Replacer by volume, all Thermo Fisher Scientific). For destructive analyses, pellets were made by centrifugation at 1.1×1000 g for 5 minutes, aspiration of medium supernatant, snap-freezing in liquid nitrogen, and kept at −80° C. for until pellet lysis for DNA, protein, or RNA isolation.
For replating of progenitors and microtissue formation, after neutralization and cell counting, 0.8 million day-5 progenitors per well were spun down at 100×g as above and resuspended and plated in 1 mL K20 with 10 μM Y-27632 ROCK-inhibitor (Tocris) into Synthemax® II-SC coated 12 well plates (Corning). Media was then changed daily in 2 mL of “K2” (same formulation as K20 above, but with just 2% Knockout Serum Replacer), and changed daily. Differentiating hPSC-CMs from replated progenitors in this protocol beat by day 8 to 12.

The subject of assay [6] is hPSC-CM sheets from replated progenitors. Briefly: Video edge detection / beating analysis of cardiomyocyte sheets. It is filed as cell-based, human. The note with it: DAPT present day3-day20. The protocol: (§1) For quantification of spatial regularity and graphical presentation of time averaged beating in microtissue from the H9-cTnT-GFP (FIGS. 9A, C) or 19-9-11 (FIG. 9B) cell lines, .avi video files of low-powered (2.5× magnification) fields were recorded at a resolution of 1268×720 and a frame rate of 20/second. These videos were exported into a series of sequential .tiff files using Adobe Premiere, and then analyzed in MATLAB using previously described coding algorithms (Huebsch et al., 2015). Calculations of beat rate (before and after ivrabradine, […] for 2 hours, Sigma) were performed manually in the 19-9-11 cell line and multifocal patterns in untreated progenitor-derived sheets were represented as the average rate of beating for all foci present in a field.

The subject of the next assay is H9-TnT-GFP hPSC-CMs. Briefly: cTnT-GFP reporter imaging of hPSC-CMs after NFκB inhibition. As to conditions: QNZ day 3-5 concurrent with pI:C. The assay is classed as cell-based, human. The protocol: Antibodies: NFKappaB (Abcam) and phosphorylated IKappaB (Abcam). Antibodies were used at a dilution of 1:1000. NF-κB inhibitor: 40 nM QNZ (Selleckchem).
Another assay has as its system NF-κB activation. As to conditions: cited from earlier work.
In a further assay the target is T1, HCN4 channel (Homo sapiens, UniProt Q9Y3Q4).
T1 construct: endogenous in cells; host or cells: replated progenitor-derived cardiomyocyte sheets, 19-9-11 iPS cell line
T1 sequence (Q9Y3Q4 1-1203): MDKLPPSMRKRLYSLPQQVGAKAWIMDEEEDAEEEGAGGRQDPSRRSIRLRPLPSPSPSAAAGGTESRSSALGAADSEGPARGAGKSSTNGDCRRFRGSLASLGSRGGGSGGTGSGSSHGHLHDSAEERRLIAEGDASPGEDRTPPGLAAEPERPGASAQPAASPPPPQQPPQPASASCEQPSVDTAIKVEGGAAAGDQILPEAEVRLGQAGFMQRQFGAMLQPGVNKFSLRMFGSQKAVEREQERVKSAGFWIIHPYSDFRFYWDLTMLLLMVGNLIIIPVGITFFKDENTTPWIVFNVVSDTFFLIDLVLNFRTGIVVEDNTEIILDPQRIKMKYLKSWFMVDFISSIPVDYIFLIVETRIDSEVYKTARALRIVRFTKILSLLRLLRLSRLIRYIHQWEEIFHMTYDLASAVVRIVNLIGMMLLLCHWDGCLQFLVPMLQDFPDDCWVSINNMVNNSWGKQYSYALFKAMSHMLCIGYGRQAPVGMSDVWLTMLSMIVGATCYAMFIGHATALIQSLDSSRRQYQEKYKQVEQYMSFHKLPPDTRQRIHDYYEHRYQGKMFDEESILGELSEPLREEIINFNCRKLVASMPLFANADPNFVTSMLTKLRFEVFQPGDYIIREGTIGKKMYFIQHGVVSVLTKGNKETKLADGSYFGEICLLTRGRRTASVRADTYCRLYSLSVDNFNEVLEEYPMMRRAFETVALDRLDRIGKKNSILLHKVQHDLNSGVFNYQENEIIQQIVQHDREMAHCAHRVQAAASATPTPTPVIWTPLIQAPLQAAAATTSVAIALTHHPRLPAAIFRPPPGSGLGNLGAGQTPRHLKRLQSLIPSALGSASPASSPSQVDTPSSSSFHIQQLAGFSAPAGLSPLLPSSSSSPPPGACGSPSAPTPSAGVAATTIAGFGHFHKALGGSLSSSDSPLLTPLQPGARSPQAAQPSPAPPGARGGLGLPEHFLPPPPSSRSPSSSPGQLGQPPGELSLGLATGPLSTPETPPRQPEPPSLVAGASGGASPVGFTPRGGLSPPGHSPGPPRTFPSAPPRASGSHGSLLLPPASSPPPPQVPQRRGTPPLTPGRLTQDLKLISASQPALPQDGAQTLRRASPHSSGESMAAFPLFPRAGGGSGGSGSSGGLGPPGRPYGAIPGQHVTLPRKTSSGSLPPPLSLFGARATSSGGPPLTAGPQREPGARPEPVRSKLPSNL
Briefly: Spontaneous beat rate of cardiomyocyte sheets before and after ivrabradine. It is filed as cell-based. The protocol: as §1

Molecules are shown by their SMILES.

In the case of `C[C@H](NC(=O)Cc1cc(F)cc(F)c1)C(=O)N[C@H](C(=O)OC(C)(C)C)c1ccccc1` [DAPT], in [1] (DAPT day 3-5 or day 3-16), the “effect on pI:C-increased expression of cardiomyocyte maturation genes (αMHC, cTnI, cardiac actin, ATP5a, RYR2, SERCA)” value is “reversed the increased expression”. For the same compound, the “effect on pI:C downregulation of cardiac fibroblast genes” value in [1] (Notch inhibition (DAPT) with pI:C) is on record as “accentuated”. Also, in the assay on cTnT isoforms, the “effect on protein isoform change toward adult cTnT 6 and 11 caused by pI:C” value is given as “abrogated”. Further, the “effect on increase in optical upstroke velocity (decreased rise time) from primed progenitors” value in the assay with hPSC-CMs [2] is listed as “blocked only with DAPT treatment from day 3-16”. In assay [3], the “effect on increased cell cycle activity of primed progenitors” value is recorded as “blocked the increased cell cycle activity”. In the assay with hPSC-CMs [4], the “effect on pI:C-increased hPSC-CM yield” value was “blocked pI:C's effect on hPSC-CM yield”. In addition, the “effect on increased yield from replated primed progenitors” value in the assay with hPSC-CMs [5] is “blocked this increased yield”. Further, the “contraction pattern of hPSC-CM sheets from pI:C-primed progenitors” value in assay [6] is “multifocal and disorganized without forming waves of contraction”.
As for `Nc1ccc2ncnc(NCCc3ccc(Oc4ccccc4)cc3)c2c1` [QNZ], in assay [1] (day 20 pPSC-CM, QNZ with pI:C), the “effect on pI:C-increased maturation gene expression” value is given as “reversed”. In addition, the “effect on formation of TnT-GFP positive cardiomyocyte collections after pIC treatment” value in the assay with H9-TnT-GFP hPSC-CMs is given as “blocked the generation of large collections of TnT-GFP positive cardiomyocytes”. In addition, the “inhibitory activity toward both NF-κB activation and TNF-α production” value in the assay with NF-κB activation is “potent inhibitory activity”.
`COc1cc2c(cc1OC)CC(=O)N(CCCN(C)C[C@H]1Cc3cc(OC)c(OC)cc31)CC2` [ivrabradine]: the “effect on spontaneous contractions” value on HCN4 channel (cardiomyocyte sheets from primed progenitors, 5 μm for 2 hours) is “blocked the spontaneous contractions”. The “effect on beat rate” value on HCN4 channel (cardiomyocyte sheets from untreated progenitors, 5 μM for 2 hours) is listed as “little effect”.
